Measured values: patent US20250044306A1, “Methods for Determining Opioid Responsiveness in the Treatment of Pain” (priority 2021, published 2025)
“And” between values parts separate entries of the source, which are not always exact repeats. Identical values can stand only once.

Assays:
[1] = tested on: thermal hyperalgesia in SCI animals; assay: Tail flick thermal nociception in contusion SCI rats; format: in vivo, Long-Evans rats; details: for % analgesia (maximum possible effect, MPE), tail flick latency: drug alone, s.c. 30 mins prior to testing, morphine 2 mg/kg; for % Analgesia scores, injection of drug alone, compared to morphine alone (52.01%) / % analgesia (MPE), tail flick latency, drug added to morphine: rat, in vivo
[2] = tested on: thermal hyperalgesia in SCI animals; details: rodent SCI model; Rodgers et al. 2019, 2020; cited from earlier work
DIR receptor = DIR receptor (Homo sapiens, UniProt P21728); details: Millan, Maiofiss et al. 2002; Chen, Collins et al. 2008; cited from earlier work
Chain of DIR receptor (P21728 whole entry): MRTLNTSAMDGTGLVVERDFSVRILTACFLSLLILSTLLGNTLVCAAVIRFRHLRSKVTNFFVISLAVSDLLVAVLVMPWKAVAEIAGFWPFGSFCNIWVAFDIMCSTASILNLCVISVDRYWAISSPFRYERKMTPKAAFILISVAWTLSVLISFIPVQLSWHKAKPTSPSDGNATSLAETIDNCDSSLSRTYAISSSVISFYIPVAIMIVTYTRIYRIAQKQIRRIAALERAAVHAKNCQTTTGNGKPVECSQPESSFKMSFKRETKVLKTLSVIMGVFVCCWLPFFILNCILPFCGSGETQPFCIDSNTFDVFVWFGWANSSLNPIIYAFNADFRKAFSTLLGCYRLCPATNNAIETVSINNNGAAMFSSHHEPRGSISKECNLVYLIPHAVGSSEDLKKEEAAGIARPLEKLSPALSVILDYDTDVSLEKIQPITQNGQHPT

patients with pain = details: clinical study using morphine to treat pain; cited from earlier work
[3] = morphine nonresponsive SCI animals (n=18), pramipexole 0.1 mg/kg, SCH 39166 0.1 mg/kg

In the case of `CN1CCc2cc(Cl)c(O)cc2[C@H]2c3ccccc3CC[C@@H]21` [SCH 39166], the “% analgesia (maximum possible effect, MPE), tail flick latency” value [1, 3] is reported as −37.5%±6.99, the “% Analgesia scores, injection of drug alone, compared to morphine alone (52.01%)” value [1] is reported as −21.07%±10.46 and the “% analgesia (MPE), tail flick latency, drug added to morphine” value [1] is reported as 18.79%±13.547 and 29.56%+11.51.

For `CN1CC[C@]23c4c5ccc(O)c4O[C@H]2[C@@H](O)C=C[C@H]3[C@H]1C5` [morphine], the “Share of SCI animals responsive to morphine (earlier studies)” value [2] is given as “⅓ and one third”, the “Binding to the DIR receptor” value (DIR receptor) is given as “neither morphine nor pramipexole bind to the DIR receptor” and the “Patients who continued morphine treatment for pain management for more than 12 months” value (patients with pain) is given as 15%. For the same compound, the “Patients who failed to respond to morphine treatment” value (patients with pain) was “more than 50%”, the “Share of SCI animals in which an acute injection of morphine provided analgesia” value ([1]; morphine 2 mg/kg s.c., n=8 of 26 SCI animals) was “one third” and the “% analgesia (maximum possible effect, MPE), tail flick latency” value [1, 3] was −24.48%±6.241. The “% analgesia (maximum possible effect, MPE), tail flick latency” value ([1]; morphine responsive SCI animals (n=8)) was 52.01%±3.494.

With `CCCN[C@H]1CCc2nc(N)sc2C1` [pramipexole] the “% analgesia (maximum possible effect, MPE), tail flick latency” value [1, 3] was −7.27%±11.06, the “% Analgesia scores, injection of drug alone, compared to morphine alone (52.01%)” value [1] was 12.87%±15.84 and the “% analgesia (MPE), tail flick latency, drug added to morphine” value [1] was 96.98%±1.985 and 64.38%±10.37.
